Assay results published in US9884818B2, “Sulphamoylpyrrolamide derivatives and the use thereof as medicaments for the treatment of hepatitis B” (Janssen Sciences Ireland UC, priority 2013, dated 2018).

Columns and labels:
[1] = tested on: HepG2 cells; assay: Cytotoxicity in HepG2 cells, Resazurin viability assay; details: read-out: HepG2 4 days CC50; HepG2 cells, incubated for 4 days, Resazurin assay
[2] = tested on: HBV; assay: Anti-HBV activity, HepG2.2.15 stable transfected cell line, HBV DNA from secreted virions by realtime PCR; type: cell-based; details: HepG2.2.15 cells, 6 days of treatment, HBV DNA from secreted virions; read-out: HepG2 2.15 EC50
[3] = tested on: HBV; assay: Anti-HBV activity, HepG2.117 inducibly HBV producing cell line (Tet-off), intracellular HBV DNA by realtime PCR; type: cell-based; details: HepG2.117 cells, 3 days of treatment, intracellular HBV DNA; read-out: HepG2 117 EC50

Row | Structure (SMILES) | CC50 [1] | EC50 [2] | EC50 [3]
1 | CCC(C)(NS(=O)(=O)c1cc(C(=O)Nc2cc(F)c(F)c(Cl)c2)n(C)c1)C(F)(F)F (single isomer, unassigned) [Compound 165b, N-(3-chloro-4,5-difluoro-phenyl)-1-methyl-4-[[1-methyl-1-(trifluoro-methyl)propyl]sulfamoyl]pyrrole-2-carboxamide] | 4800 nM | 120 nM | 20 nM
2 | Cn1cc(S(=O)(=O)NC2CCC(F)(F)C2)cc1C(=O)Nc1cc(F)c(F)c(Cl)c1 (single isomer, unassigned) [Compound 166b, N-(3-Chloro-4,5-difluorophenyl)-4-[(3,3-difluorocyclopentyl)sulfamoyl]-1-methyl-1H-pyrrole-2-carboxamide] | 21300 nM | 310 nM | 170 nM
3 | CC(CC(F)(F)F)NS(=O)(=O)c1cc(C(=O)Nc2cc(F)c(F)c(Cl)c2)n(C)c1 (single isomer, unassigned) [Compound 169b, N-(3-Chloro-4,5-difluorophenyl)-1-methyl-4-[(3,3,3-trifluoro-1-methylpropyl)sulfamoyl]-1H-pyrrole-2-carboxamide] | 17100 nM | 40 nM | 30 nM
4 | CC(NS(=O)(=O)c1cc(C(=O)Nc2ccc(F)c(C#N)c2)n(C)c1)C(F)F (single isomer, unassigned) [Compound 200b, N-(3-Cyano-4-fluorophenyl)-4-{[2,2-difluoro-1-methylethyl]sulfamoyl}-1-methyl-1H-pyrrole-2-carboxamide] | > 25000 nM | 90 nM | 100 nM
5 | Cn1cc(S(=O)(=O)NC2CCCC2(F)F)cc1C(=O)Nc1ccc(F)c(Cl)c1F (single isomer, unassigned) [Compound 236b, N-(3-Chloro-2,4-difluorophenyl)-4-{[2,2-difluorocyclopentyl]sulfamoyl}-1-methyl-1H-pyrrole-2-carboxamide] | > 25000 nM | 60 nM | 50 nM
